The values that follow come from patent US20260324636A1, “COMPOSITION FOR PROVIDING PLANT WITH STRESS RESISTANCE” (KIRIN HOLDINGS KABUSHIKI KAISHA, priority 2022, published 2026).

In one experiment the test system is rice. Put plainly: Oxidation stress resistance against methyl viologen in rice (leaf chlorosis, chlorophyll content), Example 9. Format: in vivo, rice (variety: Nipponbare). Particulars: 0.5 mM, 2.5 μM methyl viologen, 30° C. 3 days. On the procedure:
A rice strain (the variety: Nipponbare) was used as an experimental material. Rice seeds were purchased from Nouken.
A Murashige and Skoog Plant Salt Mixture (2.2 g) was dissolved in 1 l of pure water, a pH was adjusted to 5.8, and the resultant was autoclaved (121° C., 20 minutes).
Seeds were sterilized by incubation with the use of a Kitchen Haiter® diluted to 2-fold with pure water for 20 minutes. The sterilized seeds were washed 3 times with sterile water, 30 grains of seeds were soaked in a 50-ml conical tube (Falcon) containing 10 ml of sterile water, and the seeds were cultured in an incubator maintained at 30° C. (16 hours light and 8 hours darkness) for 3 days to germinate the seeds.
After the seeds were incubated for 3 days, the growth medium was dispensed at 3 ml/well to the sterilized 12-well microplate (IWAKI), and the germinated seeds were seeded at 3 grains/well. To each well, 0.5 mM N-acetylglutamic acid or an equivalent amount of sterile water was added, and the seeds were incubated at 30° C. for 1 day. […]
Leaf chlorosis is observed in plants upon oxidation stress exposure. Thus, an extent of chlorosis was evaluated by measuring the content of the green pigment chlorophyll in leaves. […] The chlorophyll content was calculated in the same manner as in Example 1.

Another experiment relates to ZAT12. Nature of the experiment: Histone H4 acetylation level of ZAT12 by chromatin immunoprecipitation and quantitative PCR, Example 14. The class given is in vivo, Arabidopsis thaliana (Col-0). Particulars: Arabidopsis thaliana; 0.4 mM in medium, 2 hours after application; read-out: histone H4 acetylation level of ZAT12, increase vs group not subjected to the treatment. As for the experimental part: (§1) A wild-type Arabidopsis thaliana strain (accession: Col-0) was used as an experimental material. Seeds were purchased from Inplanta Innovations Inc.
(§2) A liquid medium containing a ½ Murashige and Skoog Plant Salt Mixture (Nacalai) and 1 (w/v) % sucrose (FUJIFILM Wako) was used as a growth medium.
(§3) Arabidopsis thaliana seeds were sterilized with the use of a Kitchen Haiter® liquid (Kao Corporation) diluted to one-half concentration with distilled water for 3 minutes, washed 3 times with sterile distilled water, and then incubated at 4° C. overnight. The growth medium (100 ml) was prepared in a 300-ml flask, the incubated seeds were seeded therein, the flask was transferred to an incubator (TOMY), and shake culture was then initiated. The incubator was maintained at a temperature of 22° C. for a daily cycle of 16 hours light and 8 hours darkness, and the rotation speed of the shaker was set at 180 rpm.
(§4) A stock solution of N-acetylglutamic acid (Tokyo Chemical Industry Co., Ltd.) was added to Arabidopsis thaliana 7 days after seeding to the final concentration of 0 mM and 0.4 mM in the media, followed by incubation for 2 hours. Sample fixation following incubation was performed in accordance with Yamaguchi et al (Arabidopsis Book, Feb. 17, 2014; 12: e0170). […]

The subject of the next experiment is HSFA2. Nature of the experiment: Histone H4 acetylation level of HSFA2 by chromatin immunoprecipitation and quantitative PCR, Example 14. Format: in vivo, Arabidopsis thaliana (Col-0). To be noted: Arabidopsis thaliana; 0.4 mM in medium, 2 hours after application; read-out: histone H4 acetylation level of HSFA2, increase vs group not subjected to the treatment. On the procedure: as §1, §2, §3, §4

Take `CC(=O)N[C@@H](CCC(=O)O)C(=O)O` [N-acetylglutamic acid]: the “leaf chlorosis in MV-treated group” value in the experiment on rice is given as “substantially no leaf chlorosis was observed”. Besides, in the experiment with rice (second leaf, fresh weight basis), the “chlorophyll content of the MV-treated groups” value was “increased”. Moreover, the fold induction at 400 µM with ZAT12 was 2.3; in the experiment on HSFA2, 2.
